Read-outs that look alike come from different tables or passages of the source.
Tests used:
[1] = tested on: MDA-MB231 breast cancer cells; test: MTT in vitro cytotoxicity assay, MDA-MB231; format: cell-based; settings: for viability at 10 µM / GI50: Homo sapiens, MDA-MB-231; for viability at 10 µM: read-out: Cell viability (%) MDA-MB231
Protocol: (§1) The synthesized compounds were tested against three breast tumor cell lines (MDA-MB231, SKBR-3 and MCF-7) and epithelial breast cell line (MCF-10A) by the MTT colorimetric assay.[29,30] All cells were obtained from the American Type Culture Collection. The cancerous cell lines were grown in Dulbecco's modified eagle medium (DMEM) supplemented with 10% fetal bovine serum (FBS) and 1% pen-strep antibiotic. The MCF-10A human epithelial breast cell line was grown in the complete mammary epithelial growth medium containing horse serum 5%, epithelial growth factor 20 ng mL^−1, hydrocortisone […], cholera toxin 100 ng mL^−1, insulin 10 μg mL^−1, and pen-step antibiotic.[31] For the cytotoxic assay, 20 to 75 × 10^3 cells per mL (based on the doubling time for each cell line) were seeded in 96-well plates and the plates were incubated overnight in a humidified air atmosphere at 37 °C in 5% CO2 incubator.
(§2) The cells were then treated with compounds at different concentrations. After 72 h of incubation, the MTT (0.5 mg mL^−1) was added to wells, followed by 4 h of incubation. The culture medium was then removed and DMSO (100 μL per well) was added and the absorbance values were measured at 570 nm using the multi-well Tecan NanoQuant, Infinite m200 Pro plate reader. Growth inhibitory values (GI50) were calculated using GraphPad Prism 7 (GraphPad Software, San Diego, USA) by nonlinear regression analysis. Three independent experiments were carried out and the data was expressed in mean ± standard deviation (SD). The concentration–response curves used for the GI50 calculation are available in ESI. ^†

[2] = tested on: SKBR-3 breast cancer cells; test: MTT in vitro cytotoxicity assay, SKBR-3; format: cell-based; settings: Homo sapiens; for viability at 10 µM: SK-BR-3, 10 μM, 72 h, read-out: Cell viability (%) SKBR-3; for GI50: SK-BR-3, 72 h, read-out: GI50 ± SD SKBR-3
Protocol: as §1, §2

[3] = tested on: MCF-7 breast cancer cells; test: MTT in vitro cytotoxicity assay, MCF-7; format: cell-based; settings: Homo sapiens; for viability at 10 µM: MCF7, 10 μM, 72 h, read-out: Cell viability (%) MCF-7; for GI50: MCF7, 72 h, read-out: GI50 ± SD MCF-7
Protocol: as §1, §2

[4] = tested on: MCF-10A human epithelial breast cell line; test: MTT in vitro cytotoxicity assay, MCF-10A; format: cell-based; settings: 72 h, read-out: GI50 ± SD MCF-10A
Protocol: as §1, §2

[5] = tested on: MDA-MB231 breast cancer cells; test: Time-dependent cytotoxicity (MTT); format: cell-based; settings: for inhibition at 0.125 µM / growth inhibition at 125 nM, 12 h: MDA-MB231, 125 nM
Protocol: MDA-MB231 breast cancer cells were grown in DMEM supplemented with 10% FBS and 1% pen-strep antibiotic. The cells were seeded in 96-well plates (20 × 10^3 cells per mL) and the plates were incubated overnight in a humidified air atmosphere at 37 °C in 5% CO2 incubator. The cells were then treated with compounds 16 or 18 in concentrations ranging from 0.2 nM to 125 nM for 12, 24, 48, and 72 h. After specified time for each experiment, MTT (0.5 mg mL^−1) was added to wells, followed by 4 h of incubation. The culture medium was then removed and DMSO (100 μL per well) was added and the absorbance values were measured at 570 nm using the multi-well Tecan NanoQuant, Infinite m200 Pro plate reader. GI50 values were calculated using GraphPad Prism 7 (GraphPad Software, San Diego, USA) by nonlinear regression analysis. All the time-dependent experiments at different times were carried out using the same passage of MDA-MB231 cells. Three independent experiments were carried out and the data were expressed in mean ± standard deviation (SD).

MDA-MB231 cells [6] = test: Acridine orange/propidium iodide double staining, fluorescence microscopy; format: cell-based; settings: MDA-MB231, 24 h after treatment; 16 at 125 and 250 nM, 18 at 2.5 and 5 nM
Protocol: Fluorescence microscopy was used to visualize the apoptosis in cancer cells with AO/PI staining.[20] MDA-MB231 cells were grown in 6-well plate (5 × 10^5 cells per well). […] One of the six wells was treated with 1% DMSO and served as a negative control, another well treated with methotrexate served as a positive control. After 24 h of incubation, the wells were washed with phosphate buffered saline (PBS) three times and 100 μL of AO (100 μg mL^−1 in PBS) and 25 μL of PI (100 μg mL^−1 in PBS) in 1 mL of media were added to each well. The plate was then observed under a motorized inverted fluorescent microscope (Eclipse Ti2-E, Nikon). Three independent experiments at each concentration were carried out.

MDA-MB231 cells [7] = test: Live cell imaging with AO/PI; format: cell-based; settings: MDA-MB231, 10 μM, 4 h
Protocol: MDA-MB231 cells (1 × 10^6 cells) were seeded in a Petri dish and incubated overnight in a humidified air atmosphere at 37 °C in 5% CO2 incubator. Then, the Petri dish was washed with PBS three times and 300 μL of AO (100 μg mL^−1 in PBS) and 75 μL of PI (100 μg mL^−1 in PBS) in 3 mL of media were added to the Petri dish. The cells were treated with 10 μM of compound 18 and the dish was then transferred to motorized inverted fluorescent microscope (Eclipse Ti2-E, Nikon). The pictures were taken every 10 minutes for 4 h and intercalated into video (see ESI ^†).

[8] = 72 h, MTT, read-out: GI50 ± SD MDA-MB231
[9] = MDA-MB231, calculated from GI50, read-out: Experimental pGI50 (converted)
[10] = Homo sapiens, MDA-MB-231, 12 h, read-out: growth inhibition at 125 nM, 12 h
[11] = Homo sapiens, MDA-MB-231, MDA-MB231, 72 h, read-out: GI50 ± SD, 72 h
[12] = Homo sapiens, MDA-MB-231, MDA-MB231, 24 h, concentration used in Fig. 3

| SMILES | viability at 10 µM ([1]; 72 h, MTT) [%] | GI50 [1, 8] [µM] | GI50 [1, 9] [µM] | viability at 10 µM [2] [%] | GI50 [2] [µM] | viability at 10 µM [3] [%] | GI50 [3] [µM] | GI50 [4] [µM] | melting point [°C] | also measured |
| --- | --- | --- | --- | --- | --- | --- | --- | --- | --- | --- |
| COc1cc(-c2nc(N)nc(Nc3ccc(Cl)cc3)n2)cc(OC)c1OC [Compound 16, N ^2-(4-Chlorophenyl)-6-(3,4,5-trimethoxyphenyl)-1,3,5-triazine-2,4-diamine] | 20 | 0.007 ± 1e-05 | 0.00708 | 48 | 0.3 ± 0.04 | 52 | 12.5 ± 0.2 | > 20 | 209 to 211 | inhibition at 0.125 µM [5, 10]: 17%; inhibition at 0.125 µM ([5]; Homo sapiens, MDA-MB-231, 24 h, read-out: growth inhibition at 125 nM, 24 h): 61%; inhibition at 0.125 µM ([5]; Homo sapiens, MDA-MB-231, 48 h, read-out: growth inhibition at 125 nM, 48 h): 75%; GI50 [5, 11]: 0.007 ± 0.0006 µM; growth inhibition at 125 nM, 12 h ([5]; 12 h): no significant inhibition of the cell growth; cell morphology, AO/PI double staining (MDA-MB231 cells [6]): signs of apoptosis |
| COc1cc(-c2nc(N)nc(Nc3ccc(C)cc3)n2)cc(OC)c1OC [Compound 18, N ^2-(4-Methylphenyl)-6-(3,4,5-trimethoxyphenyl)-1,3,5-triazine-2,4-diamine] | 14 | 0.001 ± 1e-05 | 0.002 | 37 | 0.21 ± 0.01 | 62 | > 20 | > 20 |  | fold more active than methotrexate ([1]; MDA-MB231): 10 fold; fold more potent than nilotinib ([1]; MDA-MB231): 40 fold; inhibition at 0.125 µM [5, 10]: 15%; IC20 [5, 12]: 0.0025 µM; IC50 [5, 12]: 0.005 µM; GI50 ([5]; Homo sapiens, MDA-MB-231, MDA-MB231, 24 h, read-out: GI50 ± SD, 24 h): 0.005 ± 0.0001 µM; GI50 ([5]; Homo sapiens, MDA-MB-231, MDA-MB231, 48 h, read-out: GI50 ± SD, 48 h): 0.004 ± 0.0003 µM; GI50 [5, 11]: 0.001 ± 2e-05 µM; growth inhibition at 125 nM, 12 h ([5]; 12 h): no significant inhibition of the cell growth; cell morphology, AO/PI double staining (MDA-MB231 cells [6]): signs of apoptosis; morphological changes in live cell imaging (MDA-MB231 cells [7]): inducing apoptosis |
| COc1cc(-c2nc(N)nc(Nc3cccc(Cl)c3)n2)cc(OC)c1OC [Compound 14, N ^2-(3-Chlorophenyl)-6-(3,4,5-trimethoxyphenyl)-1,3,5-triazine-2,4-diamine] | 40 | 9.1 ± 1.1 | 9.12 | 58 | 16.7 ± 1.4 | 96 | > 20 | > 20 | 193 to 195 |  |
| COc1cc(-c2nc(N)nc(Nc3cccc(C)c3)n2)cc(OC)c1OC [Compound 15, N ^2-(3-Methylphenyl)-6-(3,4,5-trimethoxyphenyl)-1,3,5-triazine-2,4-diamine] | 14 | 2.2 ± 0.2 | 2.19 | 43 | 6 ± 0.1 | 86 | > 20 | > 20 | 192 to 194 |  |
| COc1ccc(-c2nc(N)nc(Nc3ccc(C)cc3)n2)cc1 [Compound 9, 6-(4-Methoxyphenyl)-N^2-(4-methylphenyl)-1,3,5-triazine-2,4-diamine] | 32 | 6.1 ± 0.6 | 6.17 | 89 | > 20 | 99 | > 20 | > 20 | 186 to 188 |  |
| Nc1nc(Nc2ccccc2Cl)nc(-c2ccc(C(F)(F)F)cc2)n1 [Compound 3, N ^2-(2-Chlorophenyl)-6-(4-(trifluoromethyl)phenyl)-1,3,5-triazine-2,4-diamine] | 49 | 13.7 ± 0.6 | 13.8 | 83 | 17.7 ± 1.4 | 96 | > 20 | > 20 | 165 to 167 |  |
| Cc1ccc(Nc2nc(N)nc(-c3ccc(Cl)cc3)n2)cc1 [Compound 2, 6-(4-Chlorophenyl)-N^2-(4-methylphenyl)-1,3,5-triazine-2,4-diamine] | 29 | 13.8 ± 1.9 | 13.8 | 85 | > 20 | 100 | > 20 | > 20 | 179 to 181 |  |
| COc1ccc(-c2nc(N)nc(Nc3ccccc3)n2)cc1 [Compound 8, 6-(4-Methoxyphenyl)-N^2-phenyl-1,3,5-triazine-2,4-diamine] | 28 | 8.4 ± 0.3 | 8.32 | 67 | 19.6 ± 0.9 | 85 | 14.2 ± 1.7 | > 20 | 190 to 192 |  |

— paper PMC9055250, “Design, synthesis, and biological evaluation of new 6,N^2-diaryl-1,3,5-triazine-2,4-diamines as anticancer agents selectively targeting triple negative breast cancer cells” (RSC Advances, 2020)
